SMILES strings stand for the structures. Values after ≈ are worked out from the molar mass of the structure shown.

In data set [1] the target is T1, human β3 adrenergic receptor (Homo sapiens, UniProt P13945).
T1 construct: the full length human β3 gene is obtained from a human genomic library; expressed in transfected cells; host or cells: CHO (Chinese Hamster Ovary) cells, pcDNA3, geneticin selection
Description: Test Example 1-B: human β3 adrenergic receptor agonist activity (cAMP-Screen kit, transfected CHO cells, 96-well). It is filed as cell-based. The following applies: for Emax: CHO, read-out: β3 receptor I.A.; for EC50: Table 2, Test Example 1-B. As for the experimental part:
(§1) Measurement of Human β3 Adrenergic Receptor Agonist Activity
(§2) The measurement of human β3 adrenergic receptor agonist activity is carried out using CHO (Chinese Hamster Ovary) cells transfected with pcDNA3 (manufactured by Invitrogen, Inc.) to which human β3 gene has been inserted. […] This human β3 cDNA fragment is used as a probe, and the full length human β3 gene is obtained from a human genomic library (manufactured by Clontech Laboratories, Inc.). The above cells are cultured in Ham's F-12 medium containing 10% fetal bovine serum and 400 μg/ml geneticin (manufactured by Invitrogen, Inc.). These cells are seeded on a 96-well plate to a concentration of 2×10^4 cells/well, and after being cultured for about 20 hours, the cells are left to stand in 80 μL of serum-free Ham's F-12 medium for 15 minutes. A test compound is initially dissolved in DMSO, and then is diluted stepwise with Ham's F-12 containing 100 mmol/L HEPES and 1 mmol/L isobutylmethylxanthine. 20 μL of the dilution is added to the cells. After the cells are cultured for 30 minutes, the medium is removed. 0.3. ml of the Assay/lysis Buffer included in cAMP-Screen kit (manufactured by Applied Biosystems, Inc.) is added to the cells, and the cells are incubated at 37° C. for 30 minutes. The resulting cell lysate is subjected to quantification of cAMP with the cAMP-Screen kit.

Data set [2] concerns the target T2, human β1 adrenergic receptor (Homo sapiens, UniProt P08588).
T2 construct: expressed in transfected cells; host or cells: CHO (Chinese Hamster Ovary) cells, pcDNA3
Description: Test Example 2-B: human β1 adrenergic receptor agonist activity (method of Test Example 1-B). Particulars: for β1 receptor EC50: Table 2, Test Example 2-B; for Emax: read-out: β1 receptor I.A. It is filed as cell-based. As for the experimental part: as §2, with “kit. […] Measurement of Human β1 Adrenergic Receptor Agonist Activity” for “kit.”

Data set [3] has as its system urinary bladder smooth muscle isolated from common marmoset. In words: Test Example 7: relaxant activity on urinary bladder smooth muscle isolated from common marmoset. Particulars: KCl 40 mmol/L contraction, papaverine 10^−4 mol/L relaxation taken as 100%. As for the experimental part:
Common marmosets are (CLEA Japan, Inc.) exsanguinated to death, and then are subjected to laparotomy to isolate the urinary bladder therefrom. […] The strips are applied a resting tension of 1 g, and are equilibrated for at least 30 minutes. After the resting tension of the strips have been equilibrated, KCl at a final concentration of 40 mmol/L is repeatedly added to the organ bath, and it is confirmed that contraction due to KCl becomes almost constant. […] When the relaxation response at the maximum concentration of the test compound is completed, papaverine at a final concentration of 10^−4 mol/L is added, and the maximum relaxation response of each strip is determined.

The nature of data set [4]: Test Example 12: solubility in physiological saline. The following applies: saline or isotonic, thermodynamic from solid, 37° C., one hour, 1 mg/mL nominal. The data set is classed as physicochemical. As for the experimental part: A test compound is precisely weighed to 500 μg, and a hydrochloric acid buffer solution at pH 1.2 is added thereto to a concentration of 1 mg/mL. The solution is shaken at 37° C. for one hour. After the shaking, the entire amount of the solution is transferred into a filter tube, and the solution is filtered by centrifugation. The filtrate is analyzed by HPLC, and the solubility of the test compound is determined by dividing the peak area value of the filtrate by the peak area value of the standard solution.
Test on Solubility in Physiological Saline
The solubility of a test compound is determined by performing the same test as that performed in Test Example 11, except that the hydrochloric acid buffer solution at pH 1.2 is changed to physiological saline.

Data set [5] has as its target T1, human β3 adrenergic receptor. In words: Test Example 1-A: human β3 adrenergic receptor agonist activity (cAMP EIA, transfected CHO cells, 24-well). It is filed as cell-based. The following applies: Table 1; for EC50: Test Example 1-A; for β3 receptor I.A.: maximum response to isoproterenol taken as 100%. As for the experimental part: as §1
The measurement of human β3 adrenergic receptor agonist activity is carried out using CHO (Chinese Hamster Ovary) cells transfected with pcDNA3 (manufactured by Invitrogen, Inc.) to which human β3 gene has been inserted. […] This human β3 cDNA fragment is used as a probe, and the full length human β3 gene is obtained from a human genomic library (manufactured by Clontech Laboratories, Inc.). The above cells are cultured in Ham's F-12 medium containing 10% fetal bovine serum and 400 μg/ml geneticin (manufactured by Invitrogen, Inc.). These cells are seeded on a 24-well plate to a concentration of 1×10^5 cells/well, and after being cultured for about 20 hours, the cells are left to stand in serum-free Ham's F-12 medium for 2 hours. A test compound is initially dissolved in DMSO, and then is diluted stepwise with Ham's F-12 containing 20 mmol/L HEPES, 1 mmol/L isobutylmethylxanthine, and 1 mmol/L ascorbic acid. The dilution is added to the cells. After the cells are cultured for 30 minutes, and then the medium is removed, followed by addition of 0.1 ml of 1 N NaOH to the cells. The cells are left to stand for 20 minutes, and then are added with 0.1 ml of 1 N acetic acid and are stirred. The resulting cell lysate is centrifuged, and then is subjected to quantification of cAMP with cAMP EIA kit (manufactured by Cayman Chemical Co.).

T1 sequence (P13945 whole entry): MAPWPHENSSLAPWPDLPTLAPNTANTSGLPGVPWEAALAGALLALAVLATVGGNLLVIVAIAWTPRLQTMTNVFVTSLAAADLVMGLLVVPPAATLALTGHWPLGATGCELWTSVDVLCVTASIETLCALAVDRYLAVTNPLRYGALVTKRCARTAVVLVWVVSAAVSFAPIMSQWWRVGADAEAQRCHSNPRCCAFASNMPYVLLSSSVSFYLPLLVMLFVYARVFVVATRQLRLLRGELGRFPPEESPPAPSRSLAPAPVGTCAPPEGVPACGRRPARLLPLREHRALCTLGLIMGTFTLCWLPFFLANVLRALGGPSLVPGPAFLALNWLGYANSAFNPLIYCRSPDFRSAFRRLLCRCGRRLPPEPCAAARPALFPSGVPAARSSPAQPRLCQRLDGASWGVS
T2 sequence (P08588 whole entry): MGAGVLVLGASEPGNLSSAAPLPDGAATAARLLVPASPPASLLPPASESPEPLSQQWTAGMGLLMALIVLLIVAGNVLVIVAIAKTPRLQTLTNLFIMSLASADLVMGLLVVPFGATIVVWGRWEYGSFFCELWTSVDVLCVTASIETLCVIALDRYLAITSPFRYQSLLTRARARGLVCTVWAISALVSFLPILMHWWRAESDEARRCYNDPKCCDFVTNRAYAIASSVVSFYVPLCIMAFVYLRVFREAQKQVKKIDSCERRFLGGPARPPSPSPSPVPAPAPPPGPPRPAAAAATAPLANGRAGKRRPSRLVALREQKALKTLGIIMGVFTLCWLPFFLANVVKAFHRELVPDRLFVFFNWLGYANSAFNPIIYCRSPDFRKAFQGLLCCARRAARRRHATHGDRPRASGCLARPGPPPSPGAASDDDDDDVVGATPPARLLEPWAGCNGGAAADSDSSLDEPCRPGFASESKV

On to `CC(C)c1n[nH]c2cc(OCCNC[C@H](O)c3cccc(NS(C)(=O)=O)c3)ccc12` [Example 1, (R)-N-(3-(1-hydroxy-2-(2-(3-isopropylindazol-6-yloxy)ethylamino)ethyl)phenyl)methanesulfonamide], for which, in data set [1], the Emax was 74% and the EC50 was determined as 17 nM. In data set [2], the “β1 receptor EC50” value is “a)” and the Emax was 12%. For the same compound, in data set [3], the “relaxant activity (%) 10^−4 M” value was 68.6% and the “relaxant activity (%) 10^−5 M” value is reported as 49.9%. Besides, the solubility at 1 h in data set [4] was not below 1000 µg/mL.

For `CCc1n[nH]c2cc(OCCNC[C@H](O)c3cccc(NS(C)(=O)=O)c3)ccc12` [Example 2, (R)-N-(3-(1-hydroxy-2-(2-(3-ethylindazol-6-yloxy)ethylamino)ethyl)phenyl)methanesulfonamide], in data set [5], the midpoint of the response, the EC50, lay at 29 nM and the “β3 receptor I.A.” value is recorded as 77%. In addition, in data set [1], the Emax is 76% and the EC50 came to 17 nM. Further, in data set [2], the “β1 receptor EC50” value is reported as “a)” and the Emax came to 5.8%. Besides, in data set [3], the “relaxant activity (%) 10^−4 M” value came out at 57.8% and the “relaxant activity (%) 10^−5 M” value was found to be 43.4%. In data set [4], this compound showed a solubility at 1 h not below 1000 µg/mL.

Turning to `CCCc1n[nH]c2cc(OCCNC[C@H](O)c3cccc(NS(C)(=O)=O)c3)ccc12` [Example 3, (R)-N-(3-(1-hydroxy-2-(2-(3-propylindazol-6-yloxy)ethylamino)ethyl)phenyl)methanesulfonamide], in data set [5], the EC50 came out at 29 nM and the “β3 receptor I.A.” value came out at 77%. In addition, in data set [2], the “β1 receptor EC50” value is “a)” and the Emax is 1%.

As for `CS(=O)(=O)Nc1cccc([C@@H](O)CNCCOc2ccc3c(C(F)(F)F)n[nH]c3c2)c1` [Example 4, (R)-N-(3-(1-hydroxy-2-(2-(3-trifluoromethylindazol-6-yloxy)ethylamino)ethyl)phenyl)methanesulfonamide], in data set [1], the Emax is 78% and the EC50 was 49 nM. For the same compound, in data set [2], the “β1 receptor EC50” value is “a)” and the Emax was determined as 6.3%. Besides, in data set [3], the “relaxant activity (%) 10^−4 M” value turned out to be 73.5% and the “relaxant activity (%) 10^−5 M” value was found to be 40.8%. In data set [4], this compound showed a solubility at 1 h of 932 µg/mL (≈ 2030 µM).

As for `CN(C)C(=O)CCc1n[nH]c2cc(OCCNC[C@H](O)c3cccc(NS(C)(=O)=O)c3)ccc12` [Example 5, (R)-3-(6-(2-(2-hydroxy-2-(3-(methylsulfonamido)phenyl)ethylamino)ethoxy)-indazol-3-yl)-N,N-dimethylpropanamide], in data set [5], the EC50 amounted to 51 nM and the “β3 receptor I.A.” value is reported as 75%. For the same compound, in data set [3], the “relaxant activity (%) 10^−4 M” value worked out at 56.3% and the “relaxant activity (%) 10^−5 M” value is 50.9%. In data set [4], this compound yielded a solubility at 1 h not below 1000 µg/mL.

For `COCc1n[nH]c2cc(OCCNC[C@H](O)c3cccc(NS(C)(=O)=O)c3)ccc12` [Example 6, (R)-N-(3-(1-hydroxy-2-(2-(3-methoxymethylindazol-6-yloxy)ethylamino)ethyl)phenyl)methanesulfonamide], in data set [5], the response was half-maximal at 7.4 nM (EC50) and the “β3 receptor I.A.” value is 82%. For the same compound, in data set [3], the “relaxant activity (%) 10^−4 M” value is recorded as 42.6% and the “relaxant activity (%) 10^−5 M” value worked out at 35.3%. The compound also showed a solubility at 1 h in data set [4] of 993 µg/mL (≈ 2290 µM).

In the case of `CCc1n[nH]c2cc(OCCNC[C@H](O)c3ccc(F)c(NS(C)(=O)=O)c3)ccc12` [Example 8, (R)-N-(5-(2-(2-(3-ethylindazol-6-yloxy)ethylamino)-1-hydroxyethyl)-2-fluorophenyl)methanesulfonamide], in data set [1], the Emax worked out at 61% and the EC50 is 17 nM. Moreover, in data set [2], the “β1 receptor EC50” value is listed as “a)” and the Emax turned out to be 15%.

`CCc1n[nH]c2cc(OCCNC[C@H](O)c3ccc(Cl)c(NS(C)(=O)=O)c3)ccc12` [Example 9, (R)-N-(2-chloro-5-(2-(2-(3-ethylindazol-6-yloxy)ethylamino)-1-hydroxyethyl)phenyl)methanesulfonamide]: in data set [1], the Emax was found to be 58% and the EC50 came to 29 nM. Besides, in data set [2], the “β1 receptor EC50” value is recorded as “a)” and the Emax came out at 18%.

For `CS(=O)(=O)Nc1cc([C@@H](O)CNCCOc2ccc3c(C(F)(F)F)n[nH]c3c2)ccc1Cl` [Example 11, (R)-N-(2-chloro-5-(1-hydroxy-2-(2-(3-(trifluoromethyl)indazol-6-yloxy)ethylamino)ethyl)phenyl)methanesulfonamide], in data set [1], the Emax amounted to 65% and the EC50 worked out at 15 nM. In data set [2], the “β1 receptor EC50” value was “a)” and the Emax came out at 22%. For the same compound, in data set [3], the “relaxant activity (%) 10^−4 M” value is 39.2% and the “relaxant activity (%) 10^−5 M” value is 20.1%.

In the case of `COc1n[nH]c2cc(OCCNC[C@H](O)c3cccc(NS(=O)(=O)c4ccccc4)c3)ccc12` [Example 16, (R)-N-(3-(1-hydroxy-2-(2-(3-methoxyindazol-6-yloxy)ethylamino)ethyl)phenyl)benzenesulfonamide], in data set [1], the Emax was determined as 75% and a half-maximal response (EC50) required 17 nM. In data set [2], the “β1 receptor EC50” value is given as “a)” and the Emax came to 7%.
